Earlier results as cited in patent publication US20060293293A1, “Salmeterol and ciclesonide combination” (Altana Pharma AG, priority 2003, published 2006).

How the values were obtained:
[1] = compared with budesonide

For `CC(C)C(=O)OCC(=O)[C@@]12O[C@H](C3CCCCC3)O[C@@H]1C[C@H]1[C@@H]3CCC4=CC(=O)C=C[C@]4(C)[C@H]3[C@@H](O)C[C@@]12C` [Ciclesonide, [11β,16α(R)]-16,17[(Cyclohexylmethylen)bis(oxy)]-11-hydroxy-21-(2-methyl-1-oxoprop-oxy)pregna-1,4dien-3,20-dion], the “metabolism by liver oxidases” value (liver oxidases) is listed as “very high”, the “concentration of the drug in the lungs” value (lungs) is listed as “high” and the “absorption after oral administration” value (oral administration) is listed as “only moderately absorbed”. The plasma half-life (plasma) was “low plasma half-life”, the “anti-inflammatory activity relative to budesonide” value [1] was “higher” and the “systemic activity relative to budesonide” value [1] was “three times lower”.
